From patent publication US7772271B2 (priority 2004, dated 2010) come the findings set out here.

For one data set, the system named is wild-type poliovirus. The data set is classed as cell-based.
A further data set deals with PV IRES. As to the kind of experiment: cells. The data set is classed as cell-based, poliovirus. Conditions: for pIC50: read-out: WTPV mono luc IC50; for IC50: Enterovirus C, HEK-293T, 20 h, read-out: WTPV mono luc IC50 (μM).
Setting [1] is: 1 μM compound, Hela cells infected with wild-type poliovirus at MOI 0.1, treated for one day, CPE score.
Setting [2] is: 10 μM compound, Hela cells infected with wild-type poliovirus at MOI 0.1, treated for one day, CPE score.
The mark [3] stands for this setting: 100 μM compound, Hela cells infected with wild-type poliovirus at MOI 0.1, treated for one day, CPE score.

pIC50: −log10 of the molar value. Like-named read-outs stand apart in the source and are kept apart here.

As for `COc1ccc(-n2cc(C#N)c3ccc(OC)cc32)cc1` [compound 4], in the data set with wild-type poliovirus, the “WT-PV CPE (1 μM)*” value is 1, the “WT-PV CPE (10 μM)*” value was found to be 2 and the “WT-PV CPE (100 μM)*” value is reported as 3. Moreover, the pIC50 in the data set on PV IRES was 6.10.
Consider `CCn1cc(C#N)c2ccc(OC)cc21` [compound 5, 1-ethyl-6-methoxy-1H-indole-3-carbonitrile], for which the “WT-PV CPE (1 μM)*” value in the data set with wild-type poliovirus (setting [1]) turned out to be 1. Besides, the “WT-PV CPE (10 μM)*” value in the data set on wild-type poliovirus (setting [2]) was found to be 2. The “WT-PV CPE (100 μM)*” value in the data set on wild-type poliovirus (setting [3]) came out at 3. The IC50 in the data set on PV IRES amounted to 9 µM.
For the compound `CCn1c(-c2ccc(OC)cc2)c(C#N)c2ccc(OC)cc21` [compound 19], in the data set on wild-type poliovirus, the “WT-PV CPE (1 μM)*” value was found to be 1, the “WT-PV CPE (10 μM)*” value stood at 2 and the “WT-PV CPE (100 μM)*” value turned out to be 3. Besides, the pIC50 in the data set on PV IRES is 4.82.
For `CCOc1ccc2c(C#N)cn(CC)c2c1` [compound 9, 6-ethoxy-1-ethyl-1H-indole-3-carbonitrile], the “WT-PV CPE (1 μM)*” value with wild-type poliovirus (setting [1]) is given as 2. Besides, the “WT-PV CPE (10 μM)*” value in the data set on wild-type poliovirus (setting [2]) stood at 2. For the same compound, the “WT-PV CPE (100 μM)*” value in the data set with wild-type poliovirus (setting [3]) turned out to be 3. Besides, the IC50 in the data set with PV IRES was above 100 µM.
In the case of `COc1ccc2c(C#N)c(C)n(-c3ccc4c(c3)OCO4)c2c1` [compound 24], in the data set on wild-type poliovirus, the “WT-PV CPE (1 μM)*” value turned out to be 2, the “WT-PV CPE (10 μM)*” value was 2 and the “WT-PV CPE (100 μM)*” value is 3. The pIC50 in the data set on PV IRES is 5.82.
On to `CCn1cc(C#N)c2ccc(OC(C)C)cc21` [compound 10], for which, in the data set with wild-type poliovirus, the “WT-PV CPE (1 μM)*” value stood at 2, the “WT-PV CPE (10 μM)*” value amounted to 2 and the “WT-PV CPE (100 μM)*” value is on record as 3. The pIC50 in the data set on PV IRES is below 4.00.
On to `COCCOc1ccc2c(C#N)c(-c3ccc(NC(=O)OC(C)(C)C(F)(F)F)cc3)n(C(C)C)c2c1` [Compound 2718], for which the melting point was 188 to 191 °C.
In turn, `CC(C)NS(=O)(=O)Nc1ccc(-c2c(C#N)c3ccc(Oc4nccnc4Cl)cc3n2C2CCC2)cc1` [Compound 2946] returned a melting point of 144 to 146 °C.
For the compound `C[C@@H](OC(=O)Nc1ccc(-c2c(C#N)c3ccc(OC4CCS(=O)(=O)CC4)cc3n2C2CC2)cc1)C1CC1` [Compound 3199], the melting point lay in the range of 205 to 210 °C.
